Measured values: patent publication EP1061896B1, “COSMETIC METHOD OF TREATING SKIN” (UNILEVER PLC, priority 1998, dated 1999)
Where two headings read alike, the source gives them in different places.

What was measured:
Keratinocytes [1] = assay: Keratinocyte SDS viability assay (Neutral Red method); format: cell-based; conditions: 24 hours, n=8
Protocol: (§1) After incubating for 24 hours the medium was removed and the viability determined by the Neutral Red method.

PGE2 [2] = assay: Fibroblast PGE2 assay, PMA-induced; format: cell-based; conditions: human skin fibroblasts, N=4
Protocol: Intracellular adhesion molecules (ICAM) and PEG2 production by human skin fibroblasts can be induced by the inflammatory stimulus PMA (phorbal myristate acetate). PMA represents an external stressor which induces oxidative stress and inflammatory responses in cells. This model is used to model inflammation in vivo.
Primary human foreskin fibroblasts at passage 2 (P2) were seeded into 96-well plates at 10000 cells/well and maintained for 24 hours in an atmosphere of 5% carbon dioxide in Dulbeccos Modified Eagles Medium (DMEM) supplemented with 10% foetal calf serum. […] Phorbal myristate acetate (PMA) (Sigma) was added to the media and the cells incubated for a further 24 hours. […] The fibroblasts/media were then analysed as described below immediately or snap frozen in liquid nitrogen and stored at -70°C for future analysis. The cells were then counted and data from the dot-blot analysis subsequently standardised to cell number.
Prostaglandin E2 (PGE2) assay: Volumes of 50 µl culture medium were taken for PGE2 assay after gently shaking the culture plate. PGE2 levels in the medium were determined with a Biotrak PGE2 immunoassay kit (Amersham, UK). The assay is based on the competition between unlabelled PGE2 in the sample and a fixed quantity of horseradish peroxidase labelled PGE2 for a limited amount of fixed PGE2 specific antibody. Concentrations of unlabelled sample PGE2 are determined according to a standard curve which was obtained at the same time.

procollagen-I = assay: Immunohistochemical analysis of forearm skin biopsies after topical treatment: procollagen-I expression; format: in vivo, human; conditions: compared with placebo forearm
Description: (§2) Two groups of women were recruited with identical or nearly identical degrees of mild to moderate photodamage on each outer forearm. They were supplied with 0.05% retinoic acid in a moisturising base (Retinova®) and also with a colour matched moisturising cream with similar sensory characteristics (Dermacare® lotion), but no active ingredients, as a placebo control. Each participant of the two groups applied the Retinova® to one outer forearm and placebo (Dermacare®) to the other outer forearm. Group 1 applied the products daily to their outer forearms for 14 weeks and the Group 2 applied the products to their outer forearms for 28 weeks. At the end of the studies two full thickness 4mm punch biopsies were taken from the treated areas of each forearm. Immunohistochemical analysis of the biopsy tissue taken from the participants was performed to identify the effect of retinoic acid treatment on the expression of the skin extracellular matrix components, decorin and procollagen-I, as compared with the placebo treated forearms. The following procedure was followed:
(§3) Antibody dilution buffer for wax sections was composed of Tris Buffered Saline (TBS), 3% bovine serum albumin (BSA), 0.05% Triton X-100 and 0.05% sodium azide. […]

decorin = assay: Immunohistochemical analysis of forearm skin biopsies after topical treatment: decorin expression; format: in vivo, human; conditions: compared with placebo forearm
Description: as §2, §3

[3] = Cell viability assay by neutral red dye absorption in the pigmentation assay; format: cell-based; conditions: mouse, b16-f1 cells, n=4, read-out: Neutral Red Cell Viability % Control
Protocol: (§4) • * Cell maintenance B16-F1 mouse melanoma cells (American Type Culture Collection, Maryland, USA) were maintained in 75 cm^2 culture flasks in RPMI 1640 medium (ICN-Flow, cat. no. 12-60-54) supplemented with L-glutamine (4 mM) and 10% foetal bovine serum (FBS) at 37°C in a water saturated, 5% CO2 in air atmosphere. Cells were passaged twice weekly. • * Pigmentation Assay Subconfluent B16 cells were seeded in 96 well microtiter plates at a density of 5000 cells/well and cultured overnight in DMEM (Life Technologies, NY) containing 10% foetal bovine serum and 1% penicillin/streptomycin without phenol red at 37°C under 5% CO2. After 24 hours, the media was replaced with fresh media containing the test materials or vehicle controls. Cells were incubated for 72 hours at which time melanin was visible in the control wells. Next, the melanin containing media from each well was transferred to a clean 96 well plate and quantified by reading the absorbance at 530 nm using a microplate spectrophotometer (Dynatech MR5000) and correcting for the baseline absorption of fresh medium. As the corrected absorption is proportional to the melanin concentration the percentage pigmentation for a skin lightening test substance can be calculated as: % pigmentation = (OD530 test/OD530 ref) x 100% [formula] where OD530 test and OD530 ref indicate the average corrected absorption of the medium from the wells with the test substance and that of the medium from the wells without the test substance. The percentage inhibition caused by the test substance is then 100 - % pigmentation. • * Cell viability assay Melanin production may be reduced by inhibition of melanogenesis but it may also be affected by cytotoxicity or cell proliferation. To test whether this occurred cell viability was tested by neutral red dye absorption. Neutral red is a water soluble dye that passes through the intact plasma membrane and becomes concentrated in the lysosomes in intact cells. Total neutral red dye uptake is proportional to the number of viable cells in culture. Immediately following the removal of medium for melanin analysis from the microtitre wells, 200 µl fresh prewarmed neutral red dye (ex. Sigma, UK, Cat. Nr 2889) at 25 µg/ml medium was applied to the cells and incubated for 3 hours as for cell maintenance. Dye which had not been taken up by the cells was removed by inversion of the plate and tapping on abscrbent paper. The cells were washed with 200 µl PBS, which was then removed again. 100 µl solvent (50% H2O, 49% ethanol, 1% acetic acid) was added. After 20 minutes at ambient temperature each plate was shaken for 5 seconds on a microtitre plate shaker. The absorption was measured as described above.

PGE2 [4] = assay: Keratinocyte PGE2 assay (basal release, enzyme-linked immunoassay); format: cell-based; conditions: 24 hours, unstimulated keratinocytes, n=4, Control 197.9
Protocol: This was then replaced with KGM without hydrocortisone for 24-48 hours. No petroselinic acid was added to the control cells. […] At the end of the incubation the medium was harvested and assayed for the basal release of the pro-inflammatory PGE2 by enzyme-linked immuno assay using a commercial PGE2 kit (Amersham, Buckinghamshire, England).
The anti-inflammatory potential of the test compounds were assessed by the ability of the compounds to reduce the basal levels of secreted PGE2 as compared to the control. Statistical significance was determined using the Student's t-test.

Keratinocytes [5] = assay: Keratinocyte viability by neutral red uptake after the PGE2 assay; format: cell-based; conditions: 24 hours, at the concentrations tested (0.1 and 1 µM)
Protocol: as §1
The cells were then tested for viability by the neutral red up-take method described in example 2 above.

[6] = test system: B16-F1 mouse melanoma cells; assay: Pigmentation assay (melanin in media, absorbance at 530 nm); format: cell-based; conditions: 72 hours, n=4, read-out: Melanin in Media % Control
Protocol: as §4

[7] = Group 1 after 14 weeks, 16 participants, 0.05% retinoic acid (Retinova®) daily on outer forearm
[8] = Group 2 after 28 weeks, 15 participants, 0.05% retinoic acid (Retinova®) on outer forearm

**Q.** With `CCCCCCCCCCCCOS(=O)(=O)[O-].[Na+]` [SDS, sodium dodecyl sulphate, reference compound] as the molecule, how does the “Keratinocyte viability % of control Mean” value (Keratinocytes [1]; SDS 2 µg/ml alone (PA 0 µM)) read?
**A.** 55.8 % of control

**Q.** With `CCCCCCCCCCCCCC(=O)O[C@@H]1[C@@H](C)[C@@]2(O)[C@@H](C=C(CO)C[C@]3(O)C(=O)C(C)=C[C@@H]23)[C@@H]2C(C)(C)[C@]12OC(C)=O` [PMA, phorbal myristate acetate, reference compound] as the molecule, how does the PGE2 (PGE2 [2]; PMA (10nM) alone, Control 32±6) read?
**A.** 2371 ± 241 pg/mL

**Q.** Which results are given for `CC1=C(/C=C/C(C)=C/C=C/C(C)=C/C(=O)O)C(C)(C)CCC1` [Retinoic Acid, retinoic acid]?
**A.** No. of Participants showing marked increase in expression of procollagen-I (procollagen-I; [7]): 9; No. of Participants showing marked increase in expression of procollagen-I (procollagen-I; [8]): 10; No. of Participants showing marked increase in expression of decorin (decorin; [7]): 10; No. of Participants showing marked increase in expression of decorin (decorin; [8]): 15

**Q.** Which viability at 72 h ([3]; 0.01%) does the source give for `CCCCCCCCCCC/C=C\CCCCC(=O)O` [Petroselinic Acid, Petroselinic acid] here?
**A.** 105%

**Q.** What about the viability at 72 h ([3]; 0.013%) of the same molecule?
**A.** 105%

**Q.** And the viability at 72 h ([3]; 0.02%)?
**A.** 103%

**Q.** And the viability at 72 h ([3]; 0.04%)?
**A.** 69.9%

**Q.** What about the viability at 72 h ([3]; 0.1%) of the same molecule?
**A.** 1%

**Q.** What about the “Keratinocyte viability % of control Mean” value (Keratinocytes [1]; SDS 2 µg/ml + PA 0.1 µM) of the same molecule?
**A.** 94.5 % of control

**Q.** And the “Keratinocyte viability % of control Mean” value (Keratinocytes [1]; SDS 2 µg/ml + PA 1.0 µM)?
**A.** 84.1 % of control

**Q.** What about the “Keratinocyte viability % of control Mean” value (Keratinocytes [1]; SDS 2 µg/ml + PA 10 µM) of the same molecule?
**A.** 85.8 % of control

**Q.** What about the “Keratinocyte PGE2 Levels Mean” value (PGE2 [4]; PA 0.1 µM) of the same molecule?
**A.** 150.1 pg/well

**Q.** What about the “Keratinocyte PGE2 Levels Mean” value (PGE2 [4]; PA 1 µM) of the same molecule?
**A.** 117.8 pg/well

**Q.** And the Cell viability (Keratinocytes [5])?
**A.** not found to be adversely effected

**Q.** And the activity at 0.01 % ([6]; 0.01%)?
**A.** 79.5%

**Q.** What about the activity at 0.013 % ([6]; 0.013%) of the same molecule?
**A.** 40.4%

**Q.** What about the activity at 0.02 % ([6]; 0.02%) of the same molecule?
**A.** 55.3%

**Q.** And the activity at 0.04 % ([6]; 0.04%)?
**A.** 3.9%

**Q.** What about the activity at 0.1 % ([6]; 0.1%) of the same molecule?
**A.** 19.3%

**Q.** And the PGE2 (PGE2 [2]; PMA (10nM) + PA 0.1uM)?
**A.** 500 ± 12 pg/mL

**Q.** And the PGE2 (PGE2 [2]; PMA (10nM) + PA 1uM)?
**A.** 486 ± 93 pg/mL

**Q.** And the PGE2 (PGE2 [2]; PMA (10nM) + PA 10uM)?
**A.** 233 ± 139 pg/mL

**Q.** And the PGE2 (PGE2 [2]; PMA (10nM) + PA 100uM)?
**A.** 117 ± 39 pg/mL
